In patent US10799474B2, “Method of treating leukemia utilizing somatic cell reprogramming” (priority 2016, dated 2020):

System: normal hematopoietic stem cells/progenitor cells
Settings: mouse, in vivo
Method: 7. Reprogramming factors have less effect on normal hematopoietic stem cells/progenitor cells: bone marrow cells and leukemic cells of OSKM mice were co-transplanted into lethally irradiated mice. After leukemia developed in the mice, Dox was added into the drinking water of the mice in experimental group for 7 days. […] It can be seen from FIG. 5A that the ratios of normal hematopoietic stem cells and progenitor cells in the mouse bone marrows were not affected after Dox treatment. […] It can be seen from FIG. 5B that the apoptosis of normal hematopoietic stem cells and progenitor cells was not affected after Dox treatment. […] It can be seen from FIGS. 5A, 5B, and 5C that the number and apoptosis of normal hematopoietic stem cells/progenitor cells were not affected and the mice in the experimental group were recovered from leukemia.

C[C@H]1c2cccc(O)c2C(=O)C2=C(O)[C@]3(O)C(=O)C(C(N)=O)=C(O)[C@@H](N(C)C)[C@@H]3[C@@H](O)[C@@H]21 [Dox, doxycycline]
apoptosis of normal hematopoietic stem cells and progenitor cells in the bone marrow: not affected
ratios of normal hematopoietic stem cells and progenitor cells in the bone marrow: not affected
